Reference: ChEMBL document CHEMBL1201862, “PubChem BioAssay data set” (2004)
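Step 1: Grow cells in 96-well plates. Step 2: Expose to compound for 48 hours at 5 concentrations. Step 3: Interpolate endpoints linearly; if unreached, use highest concentration. The concentration for 50% growth inhibition is given as GI50.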 Calls of active or inactive are those of the source. Cut-off read from the data, not from the text of the source: active = GI50 up to about 1.1 µM and inactive = higher.

Key:
Assay in all cases: growth of human tumour cells (NCI), 48 h
MDA-MB-231 = test system: MDA-MB-231
BT-549 = test system: BT-549
HT-29 = test system: HT-29
HOP-62 = test system: HOP-62
UO-31 = test system: UO-31
SW-620 = test system: SW-620
SF-295 = test system: SF-295
Malme-3M = test system: Malme-3M
SK-OV-3 = test system: SK-OV-3
HCT-15 = test system: HCT-15
K562 = test system: K562
NCI-H23 = test system: NCI-H23
EKVX = test system: EKVX
A549 = test system: A549
SK-MEL-5 = test system: SK-MEL-5
NCI-H460 = test system: NCI-H460
786-0 = test system: 786-0
SN12C = test system: SN12C
OVCAR-4 = test system: OVCAR-4
T47D = test system: T47D

Q: How did the GI50 (MDA-MB-231) turn out when C=C1CCc2ccccc2C1=O was run?
A: > 100 µM (inactive)

Q: What about the GI50 (BT-549) of the same compound?
A: > 100 µM (inactive)

Q: What about the GI50 (HT-29) of the same compound?
A: 47.2 µM (inactive)

Q: And the GI50 (HOP-62)?
A: > 100 µM (inactive)

Q: What about the GI50 (UO-31) of the same compound?
A: > 100 µM (inactive)

Q: And the GI50 (SW-620)?
A: > 100 µM (inactive)

Q: What about the GI50 (SF-295) of the same compound?
A: 51.3 µM (inactive)

Q: And the GI50 (Malme-3M)?
A: > 100 µM (inactive)

Q: What about the GI50 (SK-OV-3) of the same compound?
A: > 100 µM (inactive)

Q: What about the GI50 (HCT-15) of the same compound?
A: > 100 µM

Q: What about the GI50 (K562) of the same compound?
A: 37.9 µM (inactive)

Q: What about the GI50 (NCI-H23) of the same compound?
A: > 100 µM (inactive)

Q: What about the GI50 (EKVX) of the same compound?
A: > 100 µM (inactive)

Q: What about the GI50 (A549) of the same compound?
A: > 100 µM (inactive)

Q: And the GI50 (SK-MEL-5)?
A: > 100 µM (inactive)

Q: And the GI50 (NCI-H460)?
A: > 100 µM (inactive)

Q: And the GI50 (786-0)?
A: > 100 µM (inactive)

Q: And the GI50 (SN12C)?
A: > 100 µM (inactive)

Q: What about the GI50 (OVCAR-4) of the same compound?
A: > 100 µM (inactive)

Q: Which GI50 (HT-29) does the source give for COC(=O)C1CC2CC(=NNC(N)=O)CC2C1 (configuration not stated) here?
A: > 100 µM (inactive)

Q: What about the GI50 (HOP-62) of the same compound?
A: > 100 µM (inactive)

Q: And the GI50 (UO-31)?
A: > 100 µM (inactive)

Q: And the GI50 (SW-620)?
A: > 100 µM (inactive)

Q: And the GI50 (SF-295)?
A: > 100 µM (inactive)

Q: And the GI50 (Malme-3M)?
A: > 100 µM (inactive)

Q: What about the GI50 (SK-OV-3) of the same compound?
A: > 100 µM (inactive)

Q: And the GI50 (HCT-15)?
A: > 100 µM

Q: What about the GI50 (K562) of the same compound?
A: > 100 µM (inactive)

Q: And the GI50 (NCI-H23)?
A: > 100 µM (inactive)

Q: What about the GI50 (EKVX) of the same compound?
A: > 100 µM (inactive)

Q: And the GI50 (A549)?
A: > 100 µM (inactive)

Q: What about the GI50 (SK-MEL-5) of the same compound?
A: > 100 µM (inactive)

Q: And the GI50 (NCI-H460)?
A: > 100 µM (inactive)

Q: What about the GI50 (786-0) of the same compound?
A: > 100 µM (inactive)

Q: What about the GI50 (SN12C) of the same compound?
A: > 100 µM (inactive)

Q: What about the GI50 (OVCAR-4) of the same compound?
A: > 100 µM (inactive)

Q: Which GI50 (HT-29) does the source give for CCOC(=O)c1ccc(Nc2nc3ccc(C(F)(F)F)cc3nc2-c2ccccc2)cc1 here?
A: 67.9 µM (inactive)

Q: What about the GI50 (HOP-62) of the same compound?
A: 80 µM (inactive)

Q: And the GI50 (UO-31)?
A: > 100 µM (inactive)

Q: And the GI50 (SW-620)?
A: > 100 µM (inactive)

Q: What about the GI50 (SF-295) of the same compound?
A: 56.8 µM (inactive)

Q: And the GI50 (Malme-3M)?
A: > 100 µM (inactive)

Q: What about the GI50 (HCT-15) of the same compound?
A: 15.4 µM

Q: And the GI50 (T47D)?
A: 20.5 µM (inactive)

Q: What about the GI50 (K562) of the same compound?
A: > 100 µM (inactive)

Q: What about the GI50 (NCI-H23) of the same compound?
A: > 100 µM (inactive)

Q: And the GI50 (EKVX)?
A: > 100 µM (inactive)

Q: And the GI50 (A549)?
A: > 100 µM (inactive)

Q: And the GI50 (SK-MEL-5)?
A: > 100 µM (inactive)

Q: What about the GI50 (NCI-H460) of the same compound?
A: > 100 µM (inactive)

Q: And the GI50 (786-0)?
A: > 100 µM (inactive)

Q: What about the GI50 (SN12C) of the same compound?
A: 74.8 µM (inactive)

Q: Which results are given for C[C@]12CC[C@@H]3c4ccc(OC(=O)c5ccccc5)cc4CC[C@H]3[C@@H]1CC[C@@H]2Oc1c2ccccc2nc2ccccc12?
A: GI50 (MDA-MB-231): 11.5 µM (inactive); GI50 (BT-549): 9.98 µM (inactive); GI50 (HT-29): 5.83 µM (inactive); GI50 (HOP-62): 8.17 µM (inactive); GI50 (UO-31): 13.2 µM (inactive); GI50 (SW-620): 16.9 µM (inactive); GI50 (SF-295): 16 µM (inactive); GI50 (Malme-3M): 7.94 µM (inactive); GI50 (SK-OV-3): 20.7 µM (inactive); GI50 (HCT-15): 9.73 µM; GI50 (K562): 6.38 µM (inactive); GI50 (NCI-H23): 12.4 µM (inactive); GI50 (EKVX): 1.52 µM (inactive); GI50 (A549): 6.62 µM (inactive); GI50 (SK-MEL-5): 8.61 µM (inactive); GI50 (NCI-H460): 8.53 µM (inactive); GI50 (786-0): 7.66 µM (inactive); GI50 (OVCAR-4): 15.8 µM (inactive)

Q: Which results are given for C[n+]1c(-c2ccccc2)cc2/c(=C\c3ccccc3)c3ccccc3n21?
A: GI50 (MDA-MB-231): 0.661 µM (active); GI50 (HT-29): 1.06 µM (active); GI50 (HOP-62): 2.43 µM (inactive); GI50 (UO-31): 2.95 µM (inactive); GI50 (SW-620): 1.06 µM (active); GI50 (SF-295): 4.93 µM (inactive); GI50 (Malme-3M): 1.14 µM (inactive); GI50 (SK-OV-3): 4.14 µM (inactive); GI50 (HCT-15): 3.47 µM; GI50 (K562): 7.03 µM (inactive); GI50 (NCI-H23): 2.68 µM (inactive); GI50 (EKVX): 1.93 µM (inactive); GI50 (A549): 3.96 µM (inactive); GI50 (SK-MEL-5): 0.667 µM (active); GI50 (786-0): 0.906 µM (active); GI50 (SN12C): 0.308 µM (active); GI50 (OVCAR-4): 1.62 µM (inactive)

Q: How did the GI50 (MDA-MB-231) turn out when COCCN(C(C)=O)C1CCC2(SCCS2)c2[nH]c3ccccc3c21 (configuration not stated) was run?
A: > 100 µM (inactive)

Q: And the GI50 (BT-549)?
A: > 100 µM (inactive)

Q: And the GI50 (HT-29)?
A: > 100 µM (inactive)

Q: And the GI50 (HOP-62)?
A: > 100 µM (inactive)

Q: And the GI50 (SW-620)?
A: > 100 µM (inactive)

Q: And the GI50 (SF-295)?
A: > 100 µM (inactive)

Q: What about the GI50 (Malme-3M) of the same compound?
A: > 100 µM (inactive)

Q: And the GI50 (HCT-15)?
A: > 100 µM

Q: And the GI50 (K562)?
A: > 100 µM (inactive)

Q: And the GI50 (NCI-H23)?
A: > 100 µM (inactive)

Q: And the GI50 (EKVX)?
A: > 100 µM (inactive)

Q: What about the GI50 (A549) of the same compound?
A: > 100 µM (inactive)

Q: What about the GI50 (SK-MEL-5) of the same compound?
A: > 100 µM (inactive)

Q: And the GI50 (NCI-H460)?
A: 77.6 µM (inactive)

Q: What about the GI50 (786-0) of the same compound?
A: > 100 µM (inactive)

Q: What about the GI50 (SN12C) of the same compound?
A: > 100 µM (inactive)

Q: Which GI50 (HT-29) does the source give for CCc1ccccc1N1C(=O)C(=O)C(c2nc3ccccc3s2)C(=O)C1=O here?
A: > 100 µM (inactive)

Q: And the GI50 (HOP-62)?
A: > 100 µM (inactive)

Q: What about the GI50 (UO-31) of the same compound?
A: > 100 µM (inactive)

Q: And the GI50 (SW-620)?
A: 83.8 µM (inactive)

Q: What about the GI50 (SF-295) of the same compound?
A: 83 µM (inactive)

Q: What about the GI50 (Malme-3M) of the same compound?
A: > 100 µM (inactive)

Q: And the GI50 (SK-OV-3)?
A: > 100 µM (inactive)

Q: What about the GI50 (HCT-15) of the same compound?
A: > 100 µM

Q: What about the GI50 (K562) of the same compound?
A: 44.3 µM (inactive)

Q: What about the GI50 (NCI-H23) of the same compound?
A: 66.2 µM (inactive)

Q: What about the GI50 (EKVX) of the same compound?
A: > 100 µM (inactive)

Q: What about the GI50 (A549) of the same compound?
A: > 100 µM (inactive)

Q: And the GI50 (SK-MEL-5)?
A: 92 µM (inactive)

Q: And the GI50 (NCI-H460)?
A: > 100 µM (inactive)

Q: What about the GI50 (786-0) of the same compound?
A: > 100 µM (inactive)

Q: And the GI50 (SN12C)?
A: 63.4 µM (inactive)

Q: And the GI50 (OVCAR-4)?
A: 79.8 µM (inactive)

Q: What does the source list for Nc1cc(N2CCCC2)nc(=O)n1-c1ccccc1?
A: GI50 (MDA-MB-231): > 100 µM (inactive); GI50 (BT-549): > 100 µM (inactive); GI50 (HT-29): > 100 µM (inactive); GI50 (HOP-62): > 100 µM (inactive); GI50 (SW-620): > 100 µM (inactive); GI50 (SF-295): > 100 µM (inactive); GI50 (Malme-3M): > 100 µM (inactive); GI50 (HCT-15): > 100 µM; GI50 (K562): > 100 µM (inactive); GI50 (NCI-H23): > 100 µM (inactive); GI50 (EKVX): > 100 µM (inactive); GI50 (A549): > 100 µM (inactive); GI50 (SK-MEL-5): > 100 µM (inactive); GI50 (NCI-H460): > 100 µM (inactive); GI50 (786-0): > 100 µM (inactive); GI50 (SN12C): > 100 µM (inactive); GI50 (OVCAR-4): > 100 µM (inactive)
